Data reported in paper PMC8744071 (ACS infectious diseases, 2021).
“Also recorded” adds a separate entry of the source. Where a SMILES comes first, the peptide text is derived from it. Primed or numbered codes have the meaning given here. Where no end group is shown, it is not given here. Side-chain parts run from the residue outwards. [ ]: non-standard residue; d: D form. The star is where a group is joined. CB‑TE1A1P = O=C(CN1CCCN2CCN(CCCN(CP(=O)(O)O)CC2)CC1)*; cinnamoyl = O=C(/C=C/c1ccccc1)*; PEG12′ = not defined here

Tests used:
[1] = system: Gr-1 stained neutrophils; assay: Immunofluorescence microscopy of CFA-injected mouse paws; format: in vivo; details: inflamed mouse paw, 5 h postprobe injection, frozen sections
[2] = target: T1, FPR1 (Homo sapiens, UniProt P21462); assay: FPR1 receptor internalization in GFP-FPR1 HEK293T cells; format: cell-based; details: fluorescence imaging, vs untreated controls
T1 sequence (P21462 1-350): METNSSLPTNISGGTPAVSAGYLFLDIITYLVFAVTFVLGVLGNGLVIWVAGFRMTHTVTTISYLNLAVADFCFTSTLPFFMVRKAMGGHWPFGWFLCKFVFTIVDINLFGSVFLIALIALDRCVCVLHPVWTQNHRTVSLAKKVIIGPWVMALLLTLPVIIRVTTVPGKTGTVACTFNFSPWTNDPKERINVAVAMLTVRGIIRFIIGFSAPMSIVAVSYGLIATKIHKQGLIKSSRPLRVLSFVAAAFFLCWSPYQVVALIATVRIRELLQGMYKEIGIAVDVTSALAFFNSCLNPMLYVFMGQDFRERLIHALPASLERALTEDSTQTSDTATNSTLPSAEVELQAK

[3] = system: lung granulomas; details: cynomolgus monkey, in vivo
[4] = Gamma counting of Percoll-separated blood fractions; format: in vivo, cynomolgus macaques (Macaca fascicularis); details: Percoll gradient separation: RBC pellet, buffy coat, plasma

cinnamoyl-F(D)LF(D)LFK-PEG12-Cy3 [Cy3-FLFLF]
Cy3-FLFLF labeling of cells in tissue / colocalization with Gr-1 [1]: labeled neutrophils could be detected in tissues by immunofluorescence, although other non-Gr-1-stained cells were detectable; also recorded: variable amounts of colocalization of Cy3-FLFLF and Gr-1

FLFLF-PEG12: pegylated FLFLF tested for FPR1 internalization (cinnamoyl-F[dL]F[dL]FK([PEG12′-CB‑TE1A1P]); also: CB-TE1A1P chelating 64Cu)
FPR1 internalization / signaling [2]: did not lead to internalized receptor

2-deoxy-2-(^18F)fluoro-D-glucose [^18F-FDG]
18F-FDG liver uptake by PET/CT [3]: minimal | 18F-FDG uptake in lung granulomas by PET/CT [3]: readily identifiable above lung background

CC(C)C[C@@H](NC(=O)[C@H](Cc1ccccc1)NC(=O)[C@@H](CC(C)C)NC(=O)[C@H](Cc1ccccc1)NC(=O)C=Cc1ccccc1)C(=O)N[C@@H](Cc1ccccc1)C(=O)O [FLFLF, N-cinnamoyl-F-(D)L-F-(D)L-F] (HELM PEPTIDE1{[O=C(C=Cc1ccccc1)[*:2]].F.[dL].F.[dL].F}$$$$V2.0)
Distribution of FLFLF in peripheral blood fractions [4]: remains in the plasma fraction rather than being bound to blood cells
